Measurements as given in patent US20210347823A1, “METHODS OF PHYSICOCHEMICAL-GUIDED PEPTIDE DESIGN AND NOVEL PEPTIDES DERIVED THEREFROM” (Massachusetts Institute of Technology, priority 2018, published 2021).
Entries after “also recorded” stand apart in the source; their conditions may differ.

Legend:
[1] = Stability assay in fetal bovine serum; assay type: in vitro ADME; details: fetal bovine serum, 6 h
Description: FIGS. 6A-6B. Hemolysis and resistance to protease-mediated degradation of engineered peptides. FIG. 6A. Schematic of experimental design and hemolytic assay results of Pol-CP—NH2 and derivatives, where hemolytic activity was evaluated by incubating the peptides (0.1-100 μmol L^−1) with human red blood cells in PBS at room temperature for 1 h. Experiments were performed in triplicate, (*p<0.05). FIG. 6B. Resistance to degradation of Pol-CP—NH2 and analogs exposed to fetal bovine serum (FBS) proteases for 6 h. Experiments were done in triplicate.
Stability Assays. The stability assay was performed with GIBCO fetal bovine serum diluted to 25% in water. 20 ? L of a 10 mg mL^−1 peptide solution was added to 1 mL 25% serum solution and kept at 37° C. The experiments were made in triplicate and 100 ? L aliquots were taken at 0, 0.5, 1, 2, 4 and 6 h. 10 ? L of TFA was added to the aliquots and the new solution was kept at 5° C. for 10 min, after that it was centrifuged at 14,000 rpm for 15 min, according to Powell et al. (Powell M. F. et al., Pharm. Res. 10, 1268-1273 (1993)). The reaction kinetics was followed by liquid chromatography and the percentage of remaining peptide was calculated by integrating the peptide peak area.

[2] = test system: P. aeruginosa strain PA14; assay: Scarification skin infection mouse model; assay type: in vivo, female CD-1 mice
Description: FIGS. 8A-8D. In vivo activity of Pol-CP—NH2 and its analogs. FIG. 8A. Schematic of the experimental design. Briefly, the back of mice was shaved and an abrasion was generated to damage the stratum corneum and the upper layer of the epidermis. Subsequently, an aliquot of 50 μL containing 5×10^7 CFU of P. aeruginosa in PBS was inoculated over each defined area. One day after the infection, peptides (4 μmol L^−1) were administered to the infected area. Animals were euthanized and the area of scarified skin was excised two and four days post-infection (FIG. 8B) homogenized using a bead beater for 20 minutes (25 Hz), and serially diluted for CFU quantification (****p<0.0001). FIG. 8C. Mouse body weight measurements throughout the experiment normalized by the body weight of non-infected mice. […] FIG. 8D. Longer experiment (four days) using a higher concentration (64 μmol L^−1) of peptides Pol-CP—NH2 and [Lys]'-Pol-CP—NH2 (****p<0.0001).
Scarification Skin Infection Mouse Model. P. aeruginosa strain PA14 was grown to an optical density at 600 nm (OD600) of 1 in tryptic soy broth (TSB) medium. […] Animals were euthanized and the area of scarified skin was excised two and four days post-infection, homogenized using a bead beater for 20 minutes (25 Hz), and serially diluted for CFU quantification. […] Statistical significance was assessed using a one-way ANOVA.

H-ILGTILKLLKSL-NH2 [Peptide 16, ILGTILKLLKSL-NH2]
resistance to protease-mediated degradation [1]: increased resistance to protease-mediated degradation
in vivo anti-infective activity (CFU) ([2]; 64 μmol L^−1, four days, listed as [Lys]^7-Pol-CP—NH2): nearly sterilized the infection; also recorded: virtually sterilizing abscess infections
in vivo antimicrobial activity (bacterial load, CFU) ([2]; single dose of 4 μmol L^−1 one day after infection): most active
